From publication PMC12186257, “Serendipitous and Systematic Chemoproteomic Discovery of MBLAC2, HINT1, and NME1‑4 Inhibitors from Histone Deacetylase-Targeting Pharmacophores” (ACS Chemical Biology, 2025)

Legend:
GATD3A = target: T1, GATD3A (Homo sapiens, UniProt P0DPI2); test: chemoproteomic competition assay (MV4-11/SW620 lysate, iA/iC/iQ beads, MS readout); format: binding; details: nine-dose competition assay; range stated for ALDH2 and GATD3A together
T1 construct: incubated at increasing concentrations with a mixture of lysates of MV4–11 and SW620 cells; endogenous in cells; host or cells: mixed lysate of MV4-11 and SW620 cells
T1 sequence (P0DPI2 42-268): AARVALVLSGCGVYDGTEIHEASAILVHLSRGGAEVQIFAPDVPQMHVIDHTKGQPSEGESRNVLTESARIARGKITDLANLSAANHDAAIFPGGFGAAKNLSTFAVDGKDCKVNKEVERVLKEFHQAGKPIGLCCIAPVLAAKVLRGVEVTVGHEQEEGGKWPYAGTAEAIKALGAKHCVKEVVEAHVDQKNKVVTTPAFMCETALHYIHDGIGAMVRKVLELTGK
Procedure: (§1) MBLAC2 is a metalloenzyme predicted to harbor one or two Zn^2+ ions in its active site. […] In this assay, compounds of interest are incubated at increasing concentrations with a mixture of lysates of MV4–11 and SW620 cells. The compound-treated lysates are then mixed with bead-immobilized hydroxamic acid-containing compounds iA, iC, and iQ (immobilized Quisinostat), which pull down compound-binding proteins such as HDACs, MBLAC2, ISOC1/2, ALDH2, and GATD3A (Figure a) that can be identified and quantified by mass spectrometry (MS). Proteins targeted by the library compounds in a preincubation step are prevented from being pulled down by the immobilized probes, leading to a dose-dependent reduction in MS signal. Initially, 12 metal-chelating compounds were profiled at two concentrations (10 μM and 100 μM) (Figure S3).
(§2) Chemoproteomic competition assays
(§3) Sample preparation. […]
(§4) LC-MS/MS. The different sample types were measured with different LC-MS/MS settings. MBLAC2 2-dose competition assays were measured with the Lumos1 setup, MBLAC2 9-dose competition assays were measured with the Lumos2 setup, and kinobeads assays were measured with the Eclipse setup.
(§5) Peptides were analyzed via LC–MS/MS on a Dionex Ultimate3000 nano HPLC coupled to either one of two Orbitrap Fusion Lumos mass spectrometers, or to an Orbitrap Eclipse mass spectrometer, operated via the Thermo Scientific Xcalibur software. […]
(§6) In Lumos settings, up to 12 peptide precursors were isolated in (isolation width of 1.2 Th for Lumos1 and 1.7 for Lumos2, maximum injection time of 75 ms, AGC value of 1e5 for Lumos1 and 2e5 for Lumos2), fragmented by HCD using 30% normalized collision energy (NCE) and analyzed in the Orbitrap at a resolution of 15,000 (Lumos2) or 30,000 (Lumos1). […] Peptides were isolated in the quadrupole with an isolation offset of 1.2 (isolation width of 1.2 Th, maximum injection time of 54 ms, AGC target of 200%) and fragmented by HCD with an NCE of 30% and analyzed in the Orbitrap at a resolution of 30,000. […]

ALDH2 = target: T2, ALDH2 (Homo sapiens, UniProt P05091); test: as above; format: binding; details: nine-dose competition assay; range stated for ALDH2 and GATD3A together
T2 construct: incubated at increasing concentrations with a mixture of lysates of MV4–11 and SW620 cells; endogenous in cells; host or cells: mixed lysate of MV4-11 and SW620 cells
T2 sequence (P05091 18-517): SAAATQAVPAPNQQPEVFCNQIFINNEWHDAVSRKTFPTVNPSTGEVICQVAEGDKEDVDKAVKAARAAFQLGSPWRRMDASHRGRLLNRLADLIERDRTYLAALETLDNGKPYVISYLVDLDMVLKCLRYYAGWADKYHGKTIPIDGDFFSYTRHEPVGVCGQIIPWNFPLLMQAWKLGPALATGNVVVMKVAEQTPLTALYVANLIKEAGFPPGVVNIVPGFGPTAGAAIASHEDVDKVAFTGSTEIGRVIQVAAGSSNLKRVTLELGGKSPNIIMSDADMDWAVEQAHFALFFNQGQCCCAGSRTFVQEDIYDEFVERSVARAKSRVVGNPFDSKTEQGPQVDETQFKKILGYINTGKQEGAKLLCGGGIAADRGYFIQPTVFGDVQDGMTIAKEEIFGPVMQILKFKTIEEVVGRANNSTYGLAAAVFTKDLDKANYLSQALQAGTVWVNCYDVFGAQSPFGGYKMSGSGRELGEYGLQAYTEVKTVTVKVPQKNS
Procedure: as §1, §2, §3, §4, §5, §6

EC50 (GATD3A): 23 to 30 µM
EC50 (ALDH2): 23 to 30 µM
Structure (SMILES): CC(C)Cc1ccc(C(C)C(=O)NO)cc1 (centres unmarked) [Ibuproxam]
